According to US9566312B2, “Cyclic peptides and use as medicines” (priority 2012, dated 2017):
Starred links: 1 amine or outer side, 2 acyl side, 3 side chain; linkers in the order of their positions; H or OH if unused. Non-standard residues stand in square brackets, D forms with d. Residues, ends and D or L forms follow the SMILES beside them. X64 = COC[C@@H]1CN(C[C@@H](C)[C@@H](C(=O)[*:2])N(C)[*:1])CCO1; X60 = C[C@H](CCCN1CC2CCC(C1)N2C)[C@@H](C(=O)[*:2])N(C)[*:1]; X83 = C[C@H](COC(=O)N1CCC(O)CC1)[C@@H](C(=O)[*:2])N(C)[*:1]; MeBmt = C/C=C/C[C@@H](C)[C@@H](O)[C@H](NC)C(=O)O; X86 = C[C@@H](CO)[C@@H](C(=O)[*:2])N(C)[*:1]; NMeL = CN[C@@H](CC(C)C)C(=O)O; NMeV = CN[C@H](C(=O)O)C(C)C; dNMeA = CN[C@H](C)C(=O)O; Abu = CC[C@H](N)C(=O)O

Key:
[1] = tested on: genotype 1b subgenomic HCV replicon in Huh7.5 cells; assay type: cell-based, hepatitis C virus; details: genotype 1b replicon, 72 h incubation; read-out: RPLN-1b IC50
Method: Method 2: Measuring Inhibitory Effects in a HCV Replicon System
Susceptibility to compounds was analyzed in Huh7.5 cells containing genotype 1a or 1b subgenomic HCV replicons co-expressing a luciferase reporter gene. The original replicons, pFK389lucubineo_3_3′_ET and pH/SG-Neo(L+I), were licensed from ReBlicon GmbH (Germany) and Apath LLC (Saint Louis, Mo.), respectively. The firefly reporter gen was replaced by renilla luciferase reporter gene using standard molecular biology techniques as follows.
Generation of genotype 1b subgenomic replicon: The renilla […]-neomycin phosphotransferase cassette was amplified from pF9 cytomegalovirus (CMV) hRluc-Neo Flexi(R) (Promega) by PCR using Accuprime super mix II (Invitrogen) and a primer set of Ascl hRlucNeo Fwd and NotI hRluc Rev. These two primers have the following sequences and introduce restriction sites for subsequent cloning: Ascl hRlucNeo Fwd, 5 […] 3(Ascl site underlined) (SEQ. ID No. 1), and NotI hRluc Rev, 5[…] 3(NotI site underlined) (SEQ ID No. 2). The amplification product was subcloned into pCR2.1-TOPO (Invitrogen). The resulting plasmid was digested with Ascl and NotI, and the excised fragment (hRluc-Neo) was ligated with the Roche Quick Ligation Kit (Roche) into pFK1389lucubineo_3_3′_ET digested with the same enzymes.
The assay medium for both, luciferase reporter HCV replicon and cytotoxicity assays contains phenol red-free DMEM and lacks G418. […] Luciferase activity of compound treated cells is measured relative to DMSO treated cells after 72 h incubation using Renilla-Glo™ Luciferase Assay (Promega). Cytotoxicity (CC50) is analyzed using Cell Titer-Glo™ (Promega).

CypF = CypF (Homo sapiens (Human), UniProt P30405); assay: Inhibitor binding to cyclophilin proteins by SPR, CypF; details: 1:1 binding model
Method: (§1) Method 1: Measuring Inhibitor Binding to Cyclophilin Proteins
(§2) Binding of inhibitors to expressed cyclophilins was determined using surface plasmon resonance (SPR) experiments. Briefly, avi-tagged cyclophilin proteins with mono-biotinylation were immobilized onto a Biotin CAPture chip (GE Healthcare, cat. #28920234). SPR experiments were carried out on an upgraded Biacore T200 system using a running buffer containing the inhibitor, 10 mM HEPES, pH 7.4, 150 mM NaCl, 0.05% P20, and 3% DMSO. Single-cycle kinetics measurements were used to study the interactions between cyclophilin inhibitors and different cyclophlins. Accordingly, compound at various concentrations was injected to the flow cells with a contact time of 1 min each at a flow rate of 50 μL/min. The final dissociation phase lasts for 10 min following the sample injection. Data was analyzed using Biacore T200 Evaluation Software Version 1.0 and a 1:1 binding model was applied to fit the data to obtain kon, koff, and KD.

cyclophilin A (CypA) = cyclophilin A (CypA) (Homo sapiens (Human), UniProt P62937); assay: Inhibitor binding to cyclophilin proteins by SPR, CypA; design: unit not given here; details: 1:1 binding model
[2] = tested on: peripheral blood mononuclear cells (PBMC); assay: Anti-proliferative or immunosuppressive activity, BrdU incorporation in PHA-stimulated PBMC; assay type: cell-based; details: PHA 3 μg/ml, 60 hour compound treatment; read-out: EMV PBMC IC50
Method: Method 3: Measuring Anti-Proliferative or Immunosuppressive Activity
The potential anti-proliferative activity of compounds on T-cells was analyzed based on the amount of bromodesoxy uridine (BrdU) incorporated into DNA of fresh peripheral blood mononuclear cells (PBMC) using the BrdU ELISA kit (Roche). The assay is performed in 96-well plate format with 30,000 PBMCs seeded per well in X-VIVO 15 medium (Lonza). T-cell proliferation was stimulated by addition of 3 μg/ml phytohemagglutinin (PHA) in PBMCs obtained from two donors.

cyclophilin B (CypB) = cyclophilin B (CypB) (Homo sapiens (Human), UniProt P23284); assay: Inhibitor binding to cyclophilin proteins by SPR, CypB; design: unit not given here; details: 1:1 binding model
Method: as §1, §2

cyclophilin A (CypA), sequence (P62937 whole entry): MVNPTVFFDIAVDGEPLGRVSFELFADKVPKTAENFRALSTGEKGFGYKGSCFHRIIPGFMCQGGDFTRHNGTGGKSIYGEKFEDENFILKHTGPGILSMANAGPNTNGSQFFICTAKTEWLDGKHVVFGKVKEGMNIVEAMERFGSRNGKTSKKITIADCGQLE
CypF, sequence (P30405 30-207): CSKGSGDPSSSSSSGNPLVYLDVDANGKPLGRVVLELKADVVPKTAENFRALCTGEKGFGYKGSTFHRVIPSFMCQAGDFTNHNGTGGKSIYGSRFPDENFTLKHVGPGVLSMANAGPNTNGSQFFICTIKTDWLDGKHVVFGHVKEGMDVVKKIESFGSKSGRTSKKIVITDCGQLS
cyclophilin B (CypB), sequence (P23284 34-216): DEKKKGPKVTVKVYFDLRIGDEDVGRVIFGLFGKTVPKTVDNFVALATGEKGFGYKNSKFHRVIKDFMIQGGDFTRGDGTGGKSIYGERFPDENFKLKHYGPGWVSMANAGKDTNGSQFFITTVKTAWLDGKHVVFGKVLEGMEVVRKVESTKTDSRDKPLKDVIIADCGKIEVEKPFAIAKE

| SMILES | IC50 [1] | CypF Kd (CypF) | CypA Kd (cyclophilin A (CypA)) | IC50 [2] | CypB Kd (cyclophilin B (CypB)) |
| --- | --- | --- | --- | --- | --- |
| C/C=C/C[C@@H](C)[C@@H](O)[C@H]1C(=O)N[C@@H](CC)C(=O)N(C)[C@H](C)C(=O)N(C)[C@@H]([C@@H](C)CO)C(=O)N[C@@H](C(C)C)C(=O)N(C)[C@@H](CC(C)C)C(=O)N[C@@H](C)C(=O)N[C@H](C)C(=O)N(C)[C@@H](CC(C)C)C(=O)N(C)[C@@H](CC(C)C)C(=O)N(C)[C@@H](C(C)C)C(=O)N1C [Compound 2.17.13, 3-[D-Ala]-4-[(2S,3R)-4-hydroxy-3-methyl-2-(methylamino)butanoyl]-cyclosporin] (cyclo(A[dA][NMeL][NMeL][NMeV][MeBmt][Abu][dNMeA][X86]V[NMeL])) | 85 nM | – | – | – | – |
| C/C=C/C[C@@H](C)[C@@H](O)[C@H]1C(=O)N[C@@H](CC)C(=O)N(C)[C@H](C)C(=O)N(C)[C@@H]([C@H](C)CN2CCO[C@H](COC)C2)C(=O)N[C@@H](C(C)C)C(=O)N(C)[C@@H](CC(C)C)C(=O)N[C@@H](C)C(=O)N[C@H](C)C(=O)N(C)[C@@H](CC(C)C)C(=O)N(C)[C@@H](CC(C)C)C(=O)N(C)[C@@H](C(C)C)C(=O)N1C [Compound 2.5.34, 3-[D-Ala]-4-[(2S,3R)-4-((S)-2-(methoxymethyl)morpholino)-3-methyl-2-(methylamino)butanoyl]-cyclosporin] (cyclo(A[dA][NMeL][NMeL][NMeV][MeBmt][Abu][dNMeA][X64]V[NMeL])) | 27 nM | 0.6 nM | 1.3 | 19000 nM | 0.6 |
| CCCC[C@@H](C)[C@@H](O)[C@H]1C(=O)N[C@@H](CC)C(=O)N(C)[C@H](C)C(=O)N(C)[C@@H]([C@@H](C)CN2CCO[C@H](COC)C2)C(=O)N[C@@H](C(C)C)C(=O)N(C)[C@@H](CC(C)C)C(=O)N[C@@H](C)C(=O)N[C@H](C)C(=O)N(C)[C@@H](CC(C)C)C(=O)N(C)[C@@H](CC(C)C)C(=O)N(C)[C@@H](C(C)C)C(=O)N1C [Compound 2.17.12, 1-dihydro-3-[D-Ala]-4-[(2S,3S)-4-((S)-2-(methoxymethyl)morpholino)-3-methyl-2-(methylamino)butanoyl]-cyclosporin] | 75 nM | 0.8 nM | 1.7 | – | 0.7 |
| C/C=C/C[C@@H](C)[C@@H](O)[C@H]1C(=O)N[C@@H](CC)C(=O)N(C)[C@H](CCCNC)C(=O)N(C)[C@@H]([C@H](C)COC)C(=O)N[C@@H](C(C)C)C(=O)N(C)[C@@H](CC(C)C)C(=O)N[C@@H](C)C(=O)N[C@H](C)C(=O)N(C)[C@@H](CC(C)C)C(=O)N(C)[C@@H](CC(C)C)C(=O)N(C)[C@@H](C(C)C)C(=O)N1C (stereo in doubt) [Compound 3.2.1, 3-[(R)-2,5-bis(methylamino)pentanoyl]-4-[(2S,3S)-4-methoxy-3-methyl-2-(methylamino)butanoyl]-cyclosporin] | 4800 nM | 3.4 nM | 6.3 | 34900 nM | 3.0 |
| C/C=C/C[C@@H](C)[C@@H](O)[C@H]1C(=O)N[C@@H](CC)C(=O)N(C)[C@H](C)C(=O)N(C)[C@@H]([C@H](C)COC(=O)N(C)C2CCN(C)CC2)C(=O)N[C@@H](C(C)C)C(=O)N(C)[C@@H](CC(C)C)C(=O)N[C@@H](C)C(=O)N[C@H](C)C(=O)N(C)[C@@H](CC(C)C)C(=O)N(C)[C@@H](CC(C)C)C(=O)N(C)[C@@H](C(C)C)C(=O)N1C [Compound 2.5.32, 3-[D-Ala]-4-[(2S,3S)-3-methyl-4-((methyl(1-methylpiperidin-4-yl)carbamoyl)oxy)-2-(methylamino)butanoyl]-cyclosporin] | 150 nM | 0.4 nM | 0.7 | 9500 nM | 0.5 |
| CCCC[C@@H](C)[C@@H](O)[C@H]1C(=O)N[C@@H](CC)C(=O)N(C)[C@H](C)C(=O)N(C)[C@@H]([C@H](C)COCCN2CCOCC2)C(=O)N[C@@H](C(C)C)C(=O)N(C)[C@@H](CC(C)C)C(=O)N[C@@H](C)C(=O)N[C@H](C)C(=O)N(C)[C@@H](CC(C)C)C(=O)N(C)[C@@H](CC(C)C)C(=O)N(C)[C@@H](C(C)C)C(=O)N1C [Compound 2.8.10, 1-dihydro-3-[D-Ala]-4-[(2S,3S)-3-methyl-2-(methylamino)-4-(2-morpholinoethoxy)butanoyl]-cyclosporin] | 110 nM | 1.1 nM | 2.1 | 14500 nM | 1.2 |
| C/C=C/C[C@@H](C)[C@@H](O)[C@H]1C(=O)N[C@@H](CC)C(=O)N(C)[C@H](C)C(=O)N(C)[C@@H]([C@H](C)COCCN2CCN3C(=O)OC[C@@H]3C2)C(=O)N[C@@H](C(C)C)C(=O)N(C)[C@@H](CC(C)C)C(=O)N[C@@H](C)C(=O)N[C@H](C)C(=O)N(C)[C@@H](CC(C)C)C(=O)N(C)[C@@H](CC(C)C)C(=O)N(C)[C@@H](C(C)C)C(=O)N1C [Compound 2.8.11, 3-[D-Ala]-4-[(2S,3S)-3-methyl-2-(methylamino)-4-(2-((S)-3-oxotetrahydro-1H-oxazolo[3,4-a]pyrazin-7(3H)-yl)ethoxy)butanoyl]-cyclosporin] | 58 nM | 0.5 nM | 1.3 | 12400 nM | 0.6 |
| C/C=C/C[C@@H](C)[C@@H](O)[C@H]1C(=O)N[C@@H](CC)C(=O)N(C)[C@H](C)C(=O)N(C)[C@@H]([C@H](C)COCCN2CC(OC)C2)C(=O)N[C@@H](C(C)C)C(=O)N(C)[C@@H](CC(C)C)C(=O)N[C@@H](C)C(=O)N[C@H](C)C(=O)N(C)[C@@H](CC(C)C)C(=O)N(C)[C@@H](CC(C)C)C(=O)N(C)[C@@H](C(C)C)C(=O)N1C [Compound 2.8.9, 3-[D-Ala]-4-[(2S,3S)-4-(2-(3-methoxyazetidin-1-yl)ethoxy)-3-methyl-2-(methylamino)butanoyl]-cyclosporin] | 240 nM | 0.3 nM | 0.6 | 9100 nM | 0.4 |
| C/C=C/C[C@@H](C)[C@@H](O)[C@H]1C(=O)N[C@@H](CC)C(=O)N(C)[C@H](C)C(=O)N(C)[C@@H]([C@H](C)COC(=O)N2CCC(O)CC2)C(=O)N[C@@H](C(C)C)C(=O)N(C)[C@@H](CC(C)C)C(=O)N[C@@H](C)C(=O)N[C@H](C)C(=O)N(C)[C@@H](CC(C)C)C(=O)N(C)[C@@H](CC(C)C)C(=O)N(C)[C@@H](C(C)C)C(=O)N1C [Compound 2.5.8, 3-[D-Ala]-4-[(2S,3S)-4-((4-hydroxypiperidine-1-carbonyl)oxy)-3-methyl-2-(methylamino)butanoyl]-cyclosporin] (cyclo(A[dA][NMeL][NMeL][NMeV][MeBmt][Abu][dNMeA][X83]V[NMeL])) | – | 1 nM | 1.7 | – | 1.0 |
| C/C=C/C[C@@H](C)[C@@H](O)[C@H]1C(=O)N[C@@H](CC)C(=O)N(C)[C@H](C)C(=O)N(C)[C@@H]([C@H](C)CCCN2CC3CCC(C2)N3C)C(=O)N[C@@H](C(C)C)C(=O)N(C)[C@@H](CC(C)C)C(=O)N[C@@H](C)C(=O)N[C@H](C)C(=O)N(C)[C@@H](CC(C)C)C(=O)N(C)[C@@H](CC(C)C)C(=O)N(C)[C@@H](C(C)C)C(=O)N1C [Compound 2.19.3] (cyclo(A[dA][NMeL][NMeL][NMeV][MeBmt][Abu][dNMeA][X60]V[NMeL])) | 290 nM | 0.3 nM | 0.8 | 2000 nM | 0.4 |
